Measurements reported in patent US20190022101A1, “Treating Cochlear Synaptopathy” (Massachusetts Eye and Ear Infirmary, priority 2016, published 2019).
“Also recorded” adds a separate entry of the source.

B1: brain derived neurotrophic factor (protein, UniProt P23560 19-247, looked up)
Neurotrophic factor BDNF …: APMKEANIRGQGGLAYPGVRTHGTLESVNGPKAGSRGLTSLADTFEHVIEELLDEDQKVRPNEENNKDADLYTSRVMLSSQVPLEPPLLFLLEEYKNYLDAANMSMRVRRHSDPARRGELSVCDSISEWVTAADKKTAVDMSGGTVTVLEKVPVSKGQLKQYFYETKCNPMGYTKEGCRGIDKRHWNSQCRTTQSYVRALTMDSKKRIGWRFIRIDTSCVCTLTIKRGR

Legend:
[1] = test system: cochlear function; test: Cochlear function (ABR Wave 1, DPOAE) in vivo after synaptopathic noise exposure; parameters: species or system CBA/CaJ mice; conditions: vs saline-treated controls; for ABR Wave 1 amplitudes (neural response amplitudes): 52 wk / one year post noise
Procedure: (§1) Animals: Experiments were carried out in CBA/CaJ mice. CBA/CaJ is a useful reference for studies of both noise-induced and age-related hearing loss and to cochlear injury. […] J Assoc Res Otolaryngol. 2014 October; 15(5):721-38). With respect to aging, after normalizing for cochlear place and relative lifespan, the pace of age-related threshold elevation and SGN loss in CBA/CaJ looks remarkably like that seen in human data (Sergeyenko et al. (2013)). Thus, the strain is particularly appropriate to provide the optimization of bioassays and treatments for application to the human.
(§2) Noise Exposure: Noise exposure stimuli were generated by a waveform generator (Tucker-Davis WG1), bandpass filtered with >60 dB/octave slope (Frequency Devices), amplified (Crown D-75) and delivered (JBL compression driver) through an exponential horn extending into a small, reverberant exposure chamber. Exposures were delivered to awake animals held within small cells of a subdivided cage, one animal/cell, suspended directly below the horn of the sound-delivery loudspeaker. Noise calibration to target SPL was performed immediately before each exposure session. Sound pressure levels varied by <1 dB across all cells (Kujawa et al. (2006); Kujawa et al. (2009)).
Cochlear Function: Detailed techniques have been described in previous publications (Kujawa et al. (2006); Kujawa et al. (2009); Sergeyenko et al. (2013)). […]
Effects of noise on the cochlea and its interaction with age were assessed physiologically using outer hair cell-based distortion product otoacoustic emissions (DPOAEs) and neural-based auditory brainstem responses (ABRs, specifically, wave 1). Response thresholds and suprathreshold response growth functions were recorded in ketamine/xylazine-anesthetized mice. DPOAEs were measured in response to f1 and f2 primaries (f2/f1=1.2, f2=ABR test frequencies; L2=L1−10 dB). […] ABRs were recorded with 5 ms tone-pips (0.5 msec rise/fall, alternating polarity) for the same range of frequencies. Wave 1 thresholds and wave peak ratios were determined by custom offline analysis routines.

[2] = test system: IHC synapses and spiral ganglion cells; test: Cochlear synapse and ganglion cell counts in vivo after synaptopathic noise exposure; parameters: species or system CBA/CaJ mice; conditions: for synapses / cochlear synaptic counts: one year (52 wk) after synaptopathic noise exposure
Procedure: as §1, §2
Cochlear Tissue Processing and Analysis: Techniques for cochlear fixation, dissecting and immunostaining are described in prior publications, as are techniques for quantification of pre- and post-synaptic structures in highpower confocal z-stacks (Kujawa et al. (2009); Sergeyenko et al. (2013)). Briefly, deeply anesthetized mice were intracardially perfused, both cochleae were extracted, and the round and oval windows opened to allow intra-labyrinthine perfusion of the same fixative. One cochlea was processed for immunostained cochlear whole mounts and the other for plastic embedding. We triple stained for pre-synaptic ribbons (CtBP2), post-synaptic glutamate receptors (GluA2) and/or cochlear nerve terminals (Na+K+ATPase); myosin VIIA aided hair cell visualization. […] High-power, confocal image stacks were obtained at evenly spaced locations along the cochlear spiral, including regions of lesion focus. Given the stereotyped sectioning angle, these locations correspond roughly to the 6, 12, 22, 32, 45 and 64 kHz regions. At each locus, high-NA (1.3) objectives were used to obtain a complete confocal z-stack through the synaptic zones of all IHCs and OHCs. In each field, hair cells were counted under DIC optics, and expressed pre- and post-synaptic elements on a per hair cell basis. For afferent innervation, synaptic ribbons were counted in IHC areas, and percentages of ribbons with closely apposing glutamate receptor patches or terminals assessed, aided by the use of Amira software to enable a true 3-D analysis of the volumes of immunostained structures, and custom software to isolate the voxel space around each structure of interest.
For quantification of spiral ganglion cells, cochleae were additionally postfixed, decalcified and osmicated and embedded in EPON in a stereotyped orientation. Plastic-embedded, osmium-stained sections (10 μm) were cut in a roughly horizontal plane parallel to the modiolus. In each case, ganglion cell counts were made in the section precisely in the middle of each half turn, where the cutting angle is perpendicular to the spiral of Rosenthal's canal, at regions corresponding to the synapse counts. In each selected section, the area of Rosenthal's canal is traced, the number of ganglion cells within was counted, including only those cells with a visible nucleus and nucleolus, and the cell density is computed (cells/10,000 μm^2). All morphological analyses were performed by an individual having no knowledge of animal age or treatment, with subsets double counted by a second individual as a check for consistency. […]

[3] = test system: isolated SGNs and denervated organ of Corti; test: Afferent synaptogenesis in co-culture of isolated SGNs and denervated organ of Corti; type: cell-based, mouse; conditions: P4/5 CBA/CaJ co-culture 6 days, amitriptyline 0.5 uM, vs untreated controls
Procedure: FIGS. 4A-B show amitriptyline induced cochlear afferent synaptogenesis. Isolated SGNs and denervated organ of Corti were extracted from P4/5 CBA/CaJ cochlea, the co-cultured for 6 days (see Brugeaud et al. (2014) Dev Neurobiol. April; 74(4):457-66 and Tong et al. (2013) J Assoc Res Otolaryngol. 14(3):321-9 for detailed methods). In some co-cultured explants, amitriptyline (AT; 0.5 uM) was added (4A, 4B). After culture, explants were fixed and immunostained with antibodies against neurofilament (green), CtBP2 (blue) and PSD-95 (red). Confocal images were taken in the IHC region. Newly generated afferent synapses were identified by juxtaposed CtBP2/PSD-95 puncta (yellow arrows).
The afferent innervation of hair cells is removed by physical ablation. At postnatal day four to six (P4-P6), the cochlea is dissected and transferred to Petri dishes. The inner and outer hair cells and surrounding supporting cells of the organ of Corti are separated from the SGN at the greater epithelial ridge with a surgical micro-blade, to obtain an intact sensory epithelium devoid of neurons. […] Formation of new synapses and growth of the fibers to contact hair cells is assessed by immunohistochemistry. […]

[4] = test system: Spiral ganglion neurons; test: Spiral ganglion neurite growth in cultured explants; type: cell-based, mouse; conditions: P4 CBA/CaJ SGN explants, two days culture, neurofilament stain; imipramine 1 uM or 5 uM, BDNF 50 ng/ml; vs control
Procedure: Spiral ganglion neurons were isolated from P4 CBA/CaJ mouse cochlea and cultured with DMEM/F12 supplemented with N2 and B27 in a 37° C. incubator with 5% CO2 (control conditions)(FIG. 3A). For drug treatment, BDNF (50 ng/ml) (FIG. 3C) or imipramine (1 uM or 5 uM)(FIG. 3B or FIG. 3D) was added. Two days after culture, explants were immunostained with a neurofilament antibody.

Row | Molecule | ABR Wave 1 amplitudes (neural response amplitudes) [1] | ABR Wave 1 amplitudes (neural response amplitudes) ([1]; listed as AT) | DPOAE amplitudes ([1]; 52 wk post noise) | period of post-drug efficacy ([2]; initial results, compared to short-lived benefit of exogenously-applied neurotrophins) | synapses / cochlear synaptic counts ([2]; vs saline-treated controls) | synapses / cochlear synaptic counts ([2]; vs saline-treated controls, listed as AT) | ganglion cell counts ([2]; one year post excitotoxic noise, vs saline-treated controls) | synapses ([2]; short post-exposure times, vs saline treated controls) | effects with a single dose of drug ([2]; single dose, in vivo (FIG. 6)) | newly generated afferent synapses (juxtaposed CtBP2/PSD-95 puncta), synapse counts [3] | newly generated afferent synapses (juxtaposed CtBP2/PSD-95 puncta), synapse counts ([3]; listed as AT) | spiral ganglion neurite growth [4]
1 | CN(C)CCC=C1c2ccccc2CCc2ccccc21 [amitriptyline] | neural response amplitudes were larger | larger in AT-treated ears | not DPOAE amplitudes (5C) were larger | long period of post-drug efficacy | cochlear synaptic and ganglion cell counts were greater | persisting to at least one year after synaptopathic exposure | ganglion cell counts were greater | more synapses than saline treated controls | could be seen even with a single dose of drug | synaptogenesis; also recorded: new afferent synapses are generated | greater in AT-treated than in untreated controls | –
2 | CN(C)CCCN1c2ccccc2CCc2ccccc21 [imipramine] | – | – | – | – | – | – | – | – | – | – | – | promoted spiral ganglion neurite growth in a dose-dependent manner; also recorded: dose-responsive dendritic sprouting
3 | B1 | – | – | – | – | – | – | – | – | – | – | – | promoted neurite outgrowth
